Measurements published in BindingDB's records for PubMed 35189320 (Dr.Vishwanath Karad MIT World Peace University, 2022).

Target: Sterol O-acyltransferase 1 (Homo sapiens) (UniProt P35610)
Assay: Inhibition of human ACAT1 in HepG2 cells assessed as inhibition of […] synthesis incubated for 1 hrs followed by 13C-addition of 13C-oleic acid pre-complexed with fatty acid free BSA for 6 hrs by LC/MS/MS analysis

Sterol O-acyltransferase 1 (Homo sapiens), sequence (P35610 whole entry, looked up): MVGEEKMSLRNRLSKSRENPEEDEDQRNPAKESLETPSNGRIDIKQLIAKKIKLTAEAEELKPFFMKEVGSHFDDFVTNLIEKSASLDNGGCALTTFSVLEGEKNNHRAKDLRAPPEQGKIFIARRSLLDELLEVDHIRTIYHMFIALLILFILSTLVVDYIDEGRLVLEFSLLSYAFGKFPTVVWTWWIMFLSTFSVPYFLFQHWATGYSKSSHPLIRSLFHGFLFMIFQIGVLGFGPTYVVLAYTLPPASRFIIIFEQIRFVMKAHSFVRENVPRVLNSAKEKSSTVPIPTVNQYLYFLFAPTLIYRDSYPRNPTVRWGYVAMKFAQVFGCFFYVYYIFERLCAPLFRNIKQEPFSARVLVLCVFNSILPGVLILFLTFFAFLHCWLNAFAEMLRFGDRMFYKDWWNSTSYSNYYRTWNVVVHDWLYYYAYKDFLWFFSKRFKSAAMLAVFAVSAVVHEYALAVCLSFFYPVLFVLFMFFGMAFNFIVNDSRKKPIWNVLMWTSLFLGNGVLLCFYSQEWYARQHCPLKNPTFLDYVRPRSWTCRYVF

With `O=C(O)CC1CCC2(CC1)CCN(c1ccc(NC(=O)c3nnc(Nc4ccc(F)c(F)c4)o3)cn1)CC2` the IC50 was 45 nM.
`O=C(Nc1ccc(N2CCC3(CC2)CC(C(=O)O)C3)nc1)c1nnc(Nc2ccc(F)c(F)c2)o1` was tested, and the IC50 was 2500 nM.
